Test results taken from paper PMC12856912, “Structure-Guided Semisynthesis of Blasticidin S–Amicetin Chimeras as Selective Ribosome Inhibitors” (Journal of the American Chemical Society, 2026).
Converted amounts (≈) assume the structure as drawn. Where two headings read alike, the source gives them in different places.

Columns and labels:
[1] = Cytotoxicity assay (MTS/PMS); type: cell-based; conditions: monkey, 24 h treatment, MTS/PMS, average of three biological replicates, read-out: CC50 against Vero cells
Procedure: The potential cytotoxic eff ect of the test compounds was investigated using Vero cells (monkey kidney epitheli al cells) following est ablished protocols.3 Briefly, Vero cells were plated into 96-well plates supplemented with Dulbecco's Modified Eagle Medium (DMEM) containing 10% fetal bovine serum (FBS). The cells were placed in a humidified 37 °C environment for incubation with 5% CO₂ for 24 h to allow proper adherence and growth. Following the incubation period, the culture medium was replaced with fresh DMEM containing serial dilutions of the test compounds, while the v ehicle alon e w as used as a negative control. The treated cells were incubated for an additional 24 h. To assess cell viability, the MTS/PMS reagent was added to each well and incubat ed for 4 h. A microplate reader (S ynergy H1, BioTek, USA) was used to m easure absorbance at 490 nm. Al l experiments wer e cond ucted usingthree biologi cal replicates .
Ta b l e S2. CC50 valuesa (µg/mL) against Vero cells […]
aValues at which the cell viability (normalized to vehicle control) was 50%. […]

S. aureus ΔNorA = test: Antibacterial MIC assay, serial dilution; type: cell-based, Staphylococcus aureus; conditions: for Selectivity index (CC50/MIC) S. aureus ΔNorA: CC50 Vero cells / MIC; for MIC: Staphylococcus aureus, read-out: MIC S. aureus ∆NorA
Procedure: (§1) Media and solutions were autoclaved or sterile filtered prior to use and mani pulations were carri ed out in a laminar flow hood. Antibacterial t esting was performed in polypropylene 96-well flat bottom plates. The minimal inhibitory concentration of blasticidin S (1) hydrochloride, methyl ester (3) trihydrochloride, P10 (2) tri-T FA , phenet hyl amide (4) tri -T FA , an d blastimidines M 19– 22, A, 29–32, P 37–40, and C 43–46 (salt forms as described in the te xt) were assessed against Staphylococcus aureus ΔNorA, S. aureus ATCC 6538P, methicillin-resistant S. aureus (MRSA) ATCC 43300, Enterococcus faecalis ATCC 29212, vancomycin- resistant Enterococcus, Klebsiella pneumoniae ATCC 29665, Pseudomonas aeruginosa,and Acinetobacter baumannii ATCC 17978 using serial dilutions. Doxycycline (Gold Bio) as a positive control and the vehicle as a negative control. Stock solutions of each compound were prepared at 2.56 mg/mL in 50% DMSO/water and serially diluted in 50% DMSO/water to create master plates. From the master plates, 10 μ L o f each dilution was applied to test plates using a Bravo automated liquid transfer system (Agilent).
(§2) Bacteria previously grown overnight (37 °C, 120–200 RPM), in LB broth were diluted to an OD600 of 0.05 in cation-adjusted Mueller-Hinton broth (CAMHB), grown to an OD600 of ~0.5, and diluted to an OD600 of 0.004 in CAMHB . These diluted cultures were applied to the test plates (190 μL per test well) resulting in final concentrations of the test compounds of 128–1 μg/ m L.
(§3) Growth controls (wells with inoculated media but no vehicle or test compounds) were included to assess any potential toxicity from the vehicle. Th e plates were in cubated at 37 °C for 16–18 h, except fo r VRE and E. faecalis, which w ere in cub ated at 37 °C fo r 24 h. Inh ibition was determined by measuring the optical density at 600 nm (OD60 0) with a Cytation 3 pl ate read er (BioTek). The optical density measurem ents were no rmalized to the positive and negative controls and the vehicle and growth controls were compared and found to b e indistinguishable, indicating no toxicity from […]
(§4) the vehicle used. The MIC was the lowest concentration that inhibited >90% of growth. Two biological replicates were performed in duplicate. MIC values are reported as a range from […]

S. aureus ATCC 6538P = test: Antibacterial MIC assay, serial dilution; type: cell-based, Staphylococcus aureus; conditions: for Selectivity index (CC50/MIC) S. aureus 6538P: CC50 Vero cells / MIC; for MIC: Staphylococcus aureus, ATCC 6538P / ATCC 6539P, read-out: MIC S. aureus ATCC 6539P
Procedure: as §1, §2, §3, §4

MRSA ATCC 43300 = test: Antibacterial MIC assay, serial dilution; type: cell-based, Staphylococcus aureus; conditions: for Selectivity index (CC50/MIC) MRSA 43300: CC50 Vero cells / MIC; for MIC: Staphylococcus aureus, read-out: MIC MRSA ATCC 43300
Procedure: as §1, §2, §3, §4

[2] = test system: Methicillin resistant S. aureus (MRSA) USA300; test: Antibacterial MIC assay, serial dilution; type: cell-based, Staphylococcus aureus; conditions: for Selectivity index (CC50/MIC) MRSA USA300: CC50 Vero cells / MIC; for MIC: Staphylococcus aureus, read-out: MIC Methicillin resistant S. aureus (MRSA) USA300
[3] = test system: Acinetobacter baumannii ATCC 17978; test: Antibacterial MIC assay, serial dilution; type: cell-based; conditions: ATCC17978, range from biological replicates
Procedure: as §1, §2, §3, §4

Pseudomonas aeruginosa = test: Antibacterial MIC assay, serial dilution; type: cell-based; conditions: for Selectivity index (CC50/MIC) P. aeruginosa: CC50 Vero cells / MIC; for MIC: Pseudomonas aeruginosa, range from biological replicates, read-out: MIC P. aeruginosa
Procedure: as §1, §2, §3, §4

[4] = test system: Klebsiella pneumoniae ATCC 29665; test: Antibacterial MIC assay, serial dilution; type: cell-based; conditions: for Selectivity index (CC50/MIC) K. pneumoniae: CC50 Vero cells / MIC; for MIC: Klebsiella pneumoniae, ATCC29665, range from biological replicates, read-out: MIC K. pneumoniae ATCC-29665
Procedure: as §1, §2, §3, §4

[5] = test system: Vancomycin resistant Enterococcus faecium NR-31909 (VRE); test: Antibacterial MIC assay, serial dilution; type: cell-based; conditions: for Selectivity index (CC50/MIC) VRE NR-31909: CC50 Vero cells / MIC; for MIC: Enterococcus faecium, VRE, 24 h, read-out: MIC Vancomycin resistant Enterococcus faecium NR-31909 (VRE)
Procedure: as §1, §2, §3, §4

[6] = test system: Enterococcus faecalis ATCC 29212; test: Antibacterial MIC assay, serial dilution; type: cell-based; conditions: for Selectivity index (CC50/MIC) E. faecalis 29212: CC50 Vero cells / MIC; for MIC: Enterococcus faecalis, ATCC 29112 / ATCC 29212, 24 h, read-out: MIC E. faecalis ATCC 29112
Procedure: as §1, §2, §3, §4

[7] = test system: Vancomycin resistant E. faecalis NR-31972 (VRE); test: Antibacterial MIC assay, serial dilution; type: cell-based, Enterococcus faecalis; conditions: for Selectivity index (CC50/MIC) VRE NR-31972: CC50 Vero cells / MIC; for MIC: Enterococcus faecalis, VRE, 24 h, read-out: MIC Vancomycin resistant E. faecalis NR-31972 (VRE)
Procedure: as §1, §2, §3, §4

[8] = test system: Escherichia coli BAA-2452; test: Antibacterial MIC assay, serial dilution; type: cell-based; conditions: BAA2452, read-out: MIC Escherichia coli BAA-2452
[9] = test system: Methicillin resistant Staphylococcus epidermidis (MRSE) ATCC 35984 NRS101; test: Antibacterial MIC assay, serial dilution; type: cell-based; conditions: for Selectivity index (CC50/MIC) MRSE 35984: CC50 Vero cells / MIC; for MIC: Staphylococcus epidermidis, read-out: MIC Methicillin resistant Staphylococcus epidermidis (MRSE) ATCC 35984 NRS101
[10] = Vero cells (monkey kidney epithelial cells)

Row | SMILES | Selectivity index (CC50/MIC) S. aureus ΔNorA (S. aureus ΔNorA) | MIC (S. aureus ΔNorA) | Selectivity index (CC50/MIC) S. aureus 6538P (S. aureus ATCC 6538P) | MIC (S. aureus ATCC 6538P) | Selectivity index (CC50/MIC) MRSA 43300 (MRSA ATCC 43300) | MIC (MRSA ATCC 43300) | Selectivity index (CC50/MIC) MRSA USA300 [2] | MIC [2] | MIC [3] | Selectivity index (CC50/MIC) P. aeruginosa (Pseudomonas aeruginosa) | MIC (Pseudomonas aeruginosa) | Selectivity index (CC50/MIC) K. pneumoniae [4] | MIC [4] | Selectivity index (CC50/MIC) VRE NR-31909 [5] | MIC [5] | Selectivity index (CC50/MIC) E. faecalis 29212 [6] | MIC [6] | Selectivity index (CC50/MIC) VRE NR-31972 [7] | MIC [7] | MIC [8] | further results
1 | CN(CC[C@H](N)CC(=O)N[C@H]1C=C[C@H](n2ccc(N)nc2=O)O[C@@H]1C(N)=O)C(=N)N [Blastimidine A1, P10, reference compound] | 0.1 | 128 µg/mL (≈ 304 µM) | 0.2 | 32 µg/mL (≈ 75.9 µM) | 0.2 | 32 µg/mL (≈ 75.9 µM) | 0.4 | 16 µg/mL (≈ 38 µM) | 32 µg/mL (≈ 75.9 µM) | 0.1 | 64 µg/mL (≈ 152 µM) | 0.2 | 32 µg/mL (≈ 75.9 µM) | 0.2 | 32 µg/mL (≈ 75.9 µM) | 0.2 | 32 µg/mL (≈ 75.9 µM) | 0.1 | 64 µg/mL (≈ 152 µM) | 16 µg/mL (≈ 38 µM) | CC50 at 24 h [1, 10]: 7 µg/mL (≈ 16.6 µM); Selectivity index (CC50/MIC) MRSE 35984 [9]: 0.2; MIC [9]: 32 µg/mL (≈ 75.9 µM)
2 | CN(CC[C@H](N)CC(=O)N[C@H]1C=C[C@H](n2ccc(NC(=O)c3ccc(N)cc3)nc2=O)O[C@@H]1C(N)=O)C(=N)N [Blastimidine A2] | 0.5 | 32 µg/mL (≈ 59.2 µM) | 1.0 | 16 µg/mL (≈ 29.6 µM) | 1.0 | 16 µg/mL (≈ 29.6 µM) | 1.0 | 16 µg/mL (≈ 29.6 µM) | > 128 µg/mL | <0.1 | > 128 µg/mL | 1.0 | 16 µg/mL (≈ 29.6 µM) | 1.0 | 16 µg/mL (≈ 29.6 µM) | 1.0 | 16 µg/mL (≈ 29.6 µM) | 0.5 | 32 µg/mL (≈ 59.2 µM) | 16 µg/mL (≈ 29.6 µM) | CC50 at 24 h [1, 10]: 16 µg/mL (≈ 29.6 µM); Selectivity index (CC50/MIC) MRSE 35984 [9]: 0.5; MIC [9]: 32 µg/mL (≈ 59.2 µM)
3 | CNc1ccc(C(=O)Nc2ccn([C@H]3C=C[C@H](NC(=O)C[C@@H](N)CCN(C)C(=N)N)[C@@H](C(N)=O)O3)c(=O)n2)cc1 [Blastimidine A3] | 1.5 | 16 µg/mL (≈ 28.8 µM) | 2.3 | 8 to 16 µg/mL (≈ 14.4 to 28.8 µM) | 1.5 | 16 µg/mL (≈ 28.8 µM) | 3.0 | 8 µg/mL (≈ 14.4 µM) | > 128 µg/mL | <0.2 | > 128 µg/mL | 0.8 | 32 µg/mL (≈ 57.7 µM) | 2.0 | 8 to 16 µg/mL (≈ 14.4 to 28.8 µM) | 1.5 | 16 µg/mL (≈ 28.8 µM) | 0.8 | 32 µg/mL (≈ 57.7 µM) | 32 µg/mL (≈ 57.7 µM) | CC50 at 24 h [1, 10]: 24 µg/mL (≈ 43.3 µM); Selectivity index (CC50/MIC) MRSE 35984 [9]: 1.5; MIC [9]: 16 µg/mL (≈ 28.8 µM)
4 | CC(=O)Nc1ccc(C(=O)Nc2ccn([C@H]3C=C[C@H](NC(=O)C[C@@H](N)CCN(C)C(=N)N)[C@@H](C(N)=O)O3)c(=O)n2)cc1 [Blastimidine A4] | 1.1 | 64 µg/mL (≈ 110 µM) | 1.1 | 64 µg/mL (≈ 110 µM) | 1.1 | 64 µg/mL (≈ 110 µM) | 1.1 | 64 µg/mL (≈ 110 µM) | > 128 µg/mL | <0.5 | > 128 µg/mL | 3.2 | 16 to 32 µg/mL (≈ 27.5 to 54.9 µM) | 2.1 | 32 µg/mL (≈ 54.9 µM) | 2.1 | 32 µg/mL (≈ 54.9 µM) | 1.1 | 64 µg/mL (≈ 110 µM) | 32 µg/mL (≈ 54.9 µM) | CC50 at 24 h [1, 10]: 68 µg/mL (≈ 117 µM); Selectivity index (CC50/MIC) MRSE 35984 [9]: 1.1; MIC [9]: 64 µg/mL (≈ 110 µM)
5 | CN(CC[C@H](N)CC(=O)N[C@H]1C=C[C@H](n2ccc(NC(=O)c3ccc(NC(=O)[C@@](C)(N)CO)cc3)nc2=O)O[C@@H]1C(N)=O)C(=N)N [Blastimidine A5] | 0.5 | 128 µg/mL (≈ 199 µM) | 1.0 | 64 µg/mL (≈ 99.7 µM) | 0.5 | 128 µg/mL (≈ 199 µM) | 0.5 | 128 µg/mL (≈ 199 µM) | > 128 µg/mL | <0.5 | > 128 µg/mL | 2.0 | 32 µg/mL (≈ 49.9 µM) | 2.0 | 32 µg/mL (≈ 49.9 µM) | 1.0 | 64 µg/mL (≈ 99.7 µM) | <0.5 | > 128 µg/mL | 32 µg/mL (≈ 49.9 µM) | CC50 at 24 h [1, 10]: 65 µg/mL (≈ 101 µM); Selectivity index (CC50/MIC) MRSE 35984 [9]: 0.5; MIC [9]: 128 µg/mL (≈ 199 µM)
6 | CN(CC[C@H](N)CC(=O)N[C@H]1C=C[C@H](n2ccc(N)nc2=O)O[C@@H]1C(=O)O)C(=N)N [Blastimidine C1, blasticidin S] | <0.1 | > 128 µg/mL | <0.1 | > 128 µg/mL | <0.1 | > 128 µg/mL | 0.1 | 128 µg/mL (≈ 303 µM) | > 128 µg/mL | <0.1 | > 128 µg/mL | 0.1 | 128 µg/mL (≈ 303 µM) | 0.1 | 128 µg/mL (≈ 303 µM) | 0.6 | 32 µg/mL (≈ 75.7 µM) | 0.1 | 128 µg/mL (≈ 303 µM) | 64 µg/mL (≈ 151 µM) | CC50 at 24 h [1]: 18 µg/mL (≈ 42.6 µM); Selectivity index (CC50/MIC) MRSE 35984 [9]: <0.1; MIC [9]: > 128 µg/mL
